# Experimental data published in patent US12054498B2, “Heteroaromatic macrocyclic ether chemotherapeutic agents” (Nuvalent, Inc., priority 2020, dated 2024).
# Columns and labels:
# ALK-wt = biological target: T1, ALK-wt (Homo sapiens, UniProt Q9UM73); assay: Biochemical kinase assay, ALK-wt kinase domain; details: apparent inhibitory constant, Morrison equation; ATP 2 mM in substrate solution; read-out: ALK-wt Ki^app
# T1 construct: purchased Carna 08-518
# Outline: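 Compound in DMSO added first, then substrate solution (ATP 2 mM; AQT0101 or AQT0104, 26 μM; pH 7.5 HEPES, 10 mM MgCl2), then kinase solution with enzyme at 0.5–3 nM depending on construct. Kinetic read every 2 min for 120 min at 30° C; Ki^app by Morrison regression.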
# ALK L1196M/G1202R = biological target: T2, ALK L1196M/G1202R (Homo sapiens, UniProt Q9UM73, G1202R/L1196M); assay: Biochemical kinase assay, ALK L1196M/G1202R kinase domain; details: apparent inhibitory constant, Morrison equation; ATP 2 mM in substrate solution; read-out: ALK-L1196M-G1202R Ki^app
# T2 construct: purchased SignalChem A19-12NG
# T2 sequence (Q9UM73 1116-1392 L1196M/G1202R limits assumed): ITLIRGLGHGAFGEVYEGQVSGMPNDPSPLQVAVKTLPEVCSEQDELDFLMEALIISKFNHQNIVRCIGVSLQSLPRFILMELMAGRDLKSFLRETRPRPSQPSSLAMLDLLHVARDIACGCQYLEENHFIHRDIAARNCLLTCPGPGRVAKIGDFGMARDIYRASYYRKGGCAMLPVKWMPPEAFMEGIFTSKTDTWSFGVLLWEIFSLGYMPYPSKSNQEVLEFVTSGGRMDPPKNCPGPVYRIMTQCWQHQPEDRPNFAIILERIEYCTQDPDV
# Outline: (§1)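 Continuous fluorescence read (λ=485 nm, every 2 min, 120 min, 30° C). Substrate solution held 2 mM ATP and 26 μM AQT0101 (ROS1/ALK) or AQT0104 (TRKA). Kinase solution: ROS1-G2032R 0.5 nM, ROS1-wt 0.6 nM, TRKA 1 nM, ALK double mutant 3 nM. Initial linear rates fed a Morrison-equation fit giving Ki^app.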
# ROS1-wt = biological target: T3, ROS1-wt (Homo sapiens, UniProt P08922); assay: Biochemical kinase assay, ROS1-wt kinase domain; details: apparent inhibitory constant, Morrison equation; ATP 2 mM in substrate solution; read-out: ROS1-wt Ki^app
# T3 construct: purchased Carna 08-163
# T3 sequence (P08922 1945-2222 limits assumed): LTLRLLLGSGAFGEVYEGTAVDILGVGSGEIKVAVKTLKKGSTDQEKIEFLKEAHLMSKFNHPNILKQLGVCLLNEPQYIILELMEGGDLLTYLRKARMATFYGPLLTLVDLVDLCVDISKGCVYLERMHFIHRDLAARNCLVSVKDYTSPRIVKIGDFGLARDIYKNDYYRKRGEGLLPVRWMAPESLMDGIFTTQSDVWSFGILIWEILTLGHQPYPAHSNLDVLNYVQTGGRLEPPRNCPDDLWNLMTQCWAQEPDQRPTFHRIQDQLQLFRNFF
# Outline: (§2)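 Kinetic read: 485 nm, 2-min intervals, 120 min, 30 °C. Substrate mix — ATP 2 mM, AQT0101 26 μM, HEPES 50 mM pH 7.5, MgCl2 10 mM. Output: Ki^app, Morrison equation.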
# ROS1-G2032R = biological target: T4, ROS1-G2032R (Homo sapiens, UniProt P08922, G2032R); assay: Biochemical kinase assay, ROS1-G2032R kinase domain; details: apparent inhibitory constant, Morrison equation; ATP 2 mM in substrate solution; read-out: ROS1-G2032R Ki^app
# T4 construct: purchased SignalChem R14-12BG
# T4 sequence (P08922 1945-2222 G2032R limits assumed): as the sequence (P08922 1945-2222 limits assumed) above, with G88R counted along it
# Outline: as §2
# TRKA-wt = biological target: T5, TRKA-wt (Homo sapiens, UniProt P04629); assay: Biochemical kinase assay, TRKA-wt kinase domain; details: apparent inhibitory constant, Morrison equation; ATP 2 mM in substrate solution; read-out: TRKA-wt Ki^app
# T5 construct: or TRKA-wt (1 nM, BPS Bio, 40280) kinase domains in buffer; purchased BPS Bio 40280
# T5 sequence (P04629 510-781 limits assumed): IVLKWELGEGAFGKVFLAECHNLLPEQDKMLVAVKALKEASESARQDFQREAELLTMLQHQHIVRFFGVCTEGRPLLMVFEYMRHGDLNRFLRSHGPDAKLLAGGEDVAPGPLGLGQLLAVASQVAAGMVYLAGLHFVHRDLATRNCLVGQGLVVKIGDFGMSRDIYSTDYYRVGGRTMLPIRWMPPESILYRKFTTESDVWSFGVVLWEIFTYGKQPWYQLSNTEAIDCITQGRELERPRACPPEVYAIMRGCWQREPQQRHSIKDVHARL
# Outline: as §1
# [1] = biological target: T6, Ba/F3 cells CD74-ROS1 wild-type (wt) (Homo sapiens, UniProt P08922); assay: Ba/F3 cell proliferation assay, CD74-ROS1 wild-type; assay type: cell-based; details: 72 hours, CellTiter-Glo
# T6 construct: fusion of the C-terminus of ROS1 with the N-terminus of various partner proteins; host or cells: Ba/F3 (RIKEN), retroviral pMSCV-puro; the other entry of the earlier key: CD74 (P04233, HLA class II histocompatibility antigen gamma chain)
# T6 sequence (P08922 1883-2347 limits assumed): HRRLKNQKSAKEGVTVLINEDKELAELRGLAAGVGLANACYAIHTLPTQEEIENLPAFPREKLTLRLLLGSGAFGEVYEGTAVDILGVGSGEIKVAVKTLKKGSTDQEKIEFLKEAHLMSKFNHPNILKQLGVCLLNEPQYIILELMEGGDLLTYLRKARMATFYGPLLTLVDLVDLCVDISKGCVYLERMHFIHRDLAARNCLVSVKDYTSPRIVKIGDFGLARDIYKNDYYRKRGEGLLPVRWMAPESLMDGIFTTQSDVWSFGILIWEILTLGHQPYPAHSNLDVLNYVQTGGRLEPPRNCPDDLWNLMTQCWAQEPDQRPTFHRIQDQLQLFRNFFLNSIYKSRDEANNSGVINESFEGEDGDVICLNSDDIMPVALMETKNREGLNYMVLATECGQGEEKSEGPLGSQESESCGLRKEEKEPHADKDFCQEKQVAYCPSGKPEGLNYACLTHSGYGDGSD
# Outline: (§3)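 IL-3-independent Ba/F3 CD74-ROS1 lines, puromycin-selected monoclones; 1,000 cells/well, plated 1 d before dosing; 3-fold serial dilutions, 72 h; CellTiter-Glo luminescence; IC50 by 4-parameter logistic regression.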
# [2] = biological target: T7, Ba/F3 cells CD74-ROS1 G2032R (Homo sapiens, UniProt P08922, G2032R); assay: Ba/F3 cell proliferation assay, CD74-ROS1 G2032R; assay type: cell-based; details: 72 hours, CellTiter-Glo
# T7 construct: fusion of the C-terminus of ROS1 with the N-terminus of various partner proteins; host or cells: Ba/F3 (RIKEN), retroviral pMSCV-puro; the other entry of the earlier key: CD74 (P04233, HLA class II histocompatibility antigen gamma chain)
# T7 sequence (P08922 1883-2347 G2032R limits assumed): as the sequence (P08922 1883-2347 limits assumed) above, with G150R counted along it
# Outline: as §3
# [3] = biological target: T8, Ba/F3 cells EML4-ALK wt (variant 1) (Homo sapiens, UniProt Q9UM73); assay: Ba/F3 cell proliferation assay, EML4-ALK wt (variant 1); assay type: cell-based; details: 72 hours, CellTiter-Glo
# T8 construct: echinoderm microtubule-associated protein-like 4 (EML4) gene and the ALK tyrosine kinase domain; host or cells: Ba/F3 (RIKEN), retroviral pMSCV-puro; the other entry of the earlier key: EML4 (Q9HC35, Echinoderm microtubule-associated protein-like 4)
# T8 sequence (Q9UM73 with tags, fused parts or gaps): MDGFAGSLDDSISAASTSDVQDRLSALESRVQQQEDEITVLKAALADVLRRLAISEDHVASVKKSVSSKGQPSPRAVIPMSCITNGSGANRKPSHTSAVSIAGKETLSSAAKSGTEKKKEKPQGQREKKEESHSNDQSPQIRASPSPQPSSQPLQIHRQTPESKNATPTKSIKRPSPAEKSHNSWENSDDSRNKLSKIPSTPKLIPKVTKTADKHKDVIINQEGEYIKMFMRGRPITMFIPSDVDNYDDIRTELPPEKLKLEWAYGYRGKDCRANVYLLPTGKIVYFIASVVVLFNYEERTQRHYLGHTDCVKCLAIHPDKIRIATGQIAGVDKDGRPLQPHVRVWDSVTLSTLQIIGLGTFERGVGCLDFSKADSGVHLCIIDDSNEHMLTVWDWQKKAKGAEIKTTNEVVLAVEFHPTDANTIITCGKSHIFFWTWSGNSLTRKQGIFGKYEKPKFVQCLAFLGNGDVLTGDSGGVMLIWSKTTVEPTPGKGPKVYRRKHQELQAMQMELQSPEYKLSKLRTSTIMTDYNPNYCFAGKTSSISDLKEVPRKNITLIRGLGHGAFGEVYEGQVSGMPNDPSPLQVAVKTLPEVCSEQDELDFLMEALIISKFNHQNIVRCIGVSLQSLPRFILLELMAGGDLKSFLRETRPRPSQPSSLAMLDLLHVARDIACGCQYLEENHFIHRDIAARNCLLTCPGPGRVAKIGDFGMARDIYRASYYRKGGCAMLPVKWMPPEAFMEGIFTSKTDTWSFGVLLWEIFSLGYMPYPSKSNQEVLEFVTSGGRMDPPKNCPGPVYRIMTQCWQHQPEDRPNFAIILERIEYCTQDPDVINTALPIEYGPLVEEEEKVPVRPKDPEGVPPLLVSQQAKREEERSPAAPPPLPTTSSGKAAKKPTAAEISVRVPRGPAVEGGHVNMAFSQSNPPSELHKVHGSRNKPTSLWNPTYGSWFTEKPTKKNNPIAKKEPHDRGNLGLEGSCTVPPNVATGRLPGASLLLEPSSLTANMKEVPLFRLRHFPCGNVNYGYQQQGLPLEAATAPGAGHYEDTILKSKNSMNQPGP
# Outline: (§4)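 First, Ba/F3 cells were made IL-3-independent via retroviral fusion expression and puromycin selection, then cloned by single-cell dilution. Next, 1,000 cells/well were plated for a day, exposed to 3-fold diluted compounds for 72 hours, and lysed with CellTiter-Glo. Finally, IC50 was fitted by four-parameter logistic regression.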
# [4] = biological target: T9, Ba/F3 cells EML4-ALK L1196M/G1202R (variant 1) (Homo sapiens, UniProt Q9UM73, G1202R/L1196M); assay: Ba/F3 cell proliferation assay, EML4-ALK L1196M/G1202R (variant 1); assay type: cell-based; details: 72 hours, CellTiter-Glo
# T9 construct: echinoderm microtubule-associated protein-like 4 (EML4) gene and the ALK tyrosine kinase domain; host or cells: Ba/F3 (RIKEN), retroviral pMSCV-puro; the other entry of the earlier key: EML4 (Q9HC35, Echinoderm microtubule-associated protein-like 4)
# T9 sequence (Q9UM73 with tags, fused parts or gaps L1196M/G1202R): as the sequence (Q9UM73 with tags, fused parts or gaps) above, with L635M, G641R counted along it
# Outline: as §4
# Ba/F3 cells TPM3-TRKA = biological target: T10, Ba/F3 cells TPM3-TRKA (Homo sapiens, UniProt P04629); assay: Ba/F3 cell proliferation assay, TPM3-TRKA; assay type: cell-based; details: 72 hours, CellTiter-Glo, read-out: TPM3-NTRK1-wt IC50
# T10 construct: host or cells: Ba/F3 (RIKEN), retroviral pMSCV-puro; the other entry of the earlier key: TPM3 (P06753, Tropomyosin alpha-3 chain)
# T10 sequence (P04629 510-796 limits assumed): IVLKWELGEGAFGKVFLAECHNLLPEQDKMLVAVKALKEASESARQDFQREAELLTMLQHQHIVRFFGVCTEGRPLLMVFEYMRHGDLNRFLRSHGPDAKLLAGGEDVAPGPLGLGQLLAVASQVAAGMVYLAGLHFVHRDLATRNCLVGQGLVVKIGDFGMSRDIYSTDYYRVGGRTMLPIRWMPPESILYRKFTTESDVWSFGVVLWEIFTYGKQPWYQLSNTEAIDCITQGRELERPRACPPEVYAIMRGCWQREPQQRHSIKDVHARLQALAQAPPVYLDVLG
# Outline: as §4
# [5] = system: TPM3-NTRK1-wt IC50 / primary target IC50 (e.g. CD74-ROS1-wt); assay: TRKA selectivity in Ba/F3 cells (TRKA potency divided by primary target potency); assay type: cell-based; details: for TPM3-NTRK1-wt/CD74-ROS1-G2032R selectivity ratio: TRKA potency / CD74-ROS1-G2032R potency; for TPM3-NTRK1-wt/CD74-ROS1-wt selectivity ratio: TRKA potency / CD74-ROS1-wt potency; for TPM3-NTRK1-wt/EML4-ALK-L1196M-G1202R selectivity ratio: TRKA potency / EML4-ALK-L1196M-G1202R potency; for TPM3-NTRK1-wt/EML4-ALK-wt selectivity ratio: TRKA potency / EML4-ALK-wt potency
# Procedure: TRKA selectivity was calculated by dividing a compound's TRKA potency by its primary target potency (e.g. TPM3-NTRK1-wt IC50/CD74-ROS1-wt IC50). Compound selectivity can be interpreted by binning ratio values: bin A for very high selectivity, ratio >30-fold; bin B for high selectivity, ratio >10-fold; bin C for moderate selectivity, ratio ≥1; and bin D for low selectivity, ratio <1. […] (nd=not determined).
# T1 sequence (Q9UM73 1116-1392 limits assumed): as the sequence (Q9UM73 1116-1392 L1196M/G1202R limits assumed) above, with M81L, R87G counted along it
Ki (ALK-wt),Ki (ALK L1196M/G1202R),Ki (ROS1-wt),Ki (ROS1-G2032R),Ki (TRKA-wt),IC50 [1],IC50 [2],IC50 [3],IC50 [4],IC50 (Ba/F3 cells TPM3-TRKA),Compound,TPM3-NTRK1-wt/CD74-ROS1-G2032R selectivity ratio [5],TPM3-NTRK1-wt/CD74-ROS1-wt selectivity ratio [5],TPM3-NTRK1-wt/EML4-ALK-L1196M-G1202R selectivity ratio [5],TPM3-NTRK1-wt/EML4-ALK-wt selectivity ratio [5]
< 0.05 µM,0.05 to 0.5 µM,< 0.05 µM,> 0.5 µM,> 0.5 µM,0.0001 to 0.05 µM,> 0.5 µM,0.0001 to 0.05 µM,> 0.5 µM,> 0.5 µM,"Cc1nn(CC(C)C)c2c1Cn1ncnc1-c1ccc(F)cc1[C@@H](C)Oc1cc-2cnc1N [Example 79, (19R)-16-fluoro-5,19-dimethyl-3-(2-methylpropyl)-20-oxa-3,4,8,9,11,23-hexaazapentacyclo [19.3.1.0^2,^6.0^8,^12.0^13,^18]pentacosa-1(2.4),2(6),4,9,11,13,15,17,21(25),22-decaen-22-amine]","B (bin B for high selectivity, ratio >10-fold)","A (bin A for very high selectivity, ratio >30-fold)","C (bin C for moderate selectivity, ratio ≥1)","A (bin A for very high selectivity, ratio >30-fold)"
< 0.05 µM,< 0.05 µM,< 0.05 µM,< 0.05 µM,> 0.5 µM,0.0001 to 0.05 µM,0.0001 to 0.05 µM,0.0001 to 0.05 µM,0.05 to 0.5 µM,> 0.5 µM,"Cc1nn(CC2CC2)c2c1Cc1nn(C)nc1-c1c(F)cc(F)cc1[C@@H](C)Oc1cc-2cnc1N [Example 82, (19R)-3-(cyclopropylmethyl)-14,16-difluoro-5,10,19-trimethyl-20-oxa3,4,9,10,11,23-hexaazapentacyclo[19.3.1.0^2,^6.0^8,^12.0^13,^18]pentacosa 1(24),2(6),4,8,11,13,15,17,21(25),22-decaen-22-amine]","A (bin A for very high selectivity, ratio >30-fold)","A (bin A for very high selectivity, ratio >30-fold)","A (bin A for very high selectivity, ratio >30-fold)","A (bin A for very high selectivity, ratio >30-fold)"

# The next lines start with the molecule.
Compound,Ki (ALK-wt),Ki (ALK L1196M/G1202R),Ki (ROS1-wt),Ki (ROS1-G2032R),Ki (TRKA-wt),IC50 [1],IC50 [2],IC50 [3],IC50 [4],IC50 (Ba/F3 cells TPM3-TRKA),TPM3-NTRK1-wt/CD74-ROS1-G2032R selectivity ratio [5],TPM3-NTRK1-wt/CD74-ROS1-wt selectivity ratio [5],TPM3-NTRK1-wt/EML4-ALK-L1196M-G1202R selectivity ratio [5],TPM3-NTRK1-wt/EML4-ALK-wt selectivity ratio [5]
"Cc1nc2n(n1)Cc1cnn(CC3CC3)c1-c1cnc(N)c(c1)O[C@H](C)c1cc(F)ccc1-2 [Example 75, (19R)-3-(cyclopropylmethyl)-16-fluoro-10,19-dimethyl-20-oxa-3,4,8,9,11,23-hexaazapentacyclo[19.3.10^2,^6.0^8,^12.0^13,^18]pentacosa-1(24),2(6),4,9,11,13,15,17,21(25),22-decaen-22-amine]",< 0.05 µM,< 0.05 µM,< 0.05 µM,< 0.05 µM,0.05 to 0.5 µM,0.0001 to 0.05 µM,0.0001 to 0.05 µM,0.0001 to 0.05 µM,0.0001 to 0.05 µM,0.05 to 0.5 µM,"A (bin A for very high selectivity, ratio >30-fold)","A (bin A for very high selectivity, ratio >30-fold)","B (bin B for high selectivity, ratio >10-fold)","A (bin A for very high selectivity, ratio >30-fold)"
"Cc1nc2c(o1)-c1ccc(F)cc1[C@@H](C)Oc1cc(cnc1N)-c1c(cnn1CC1CC1)C2 [Example 76, (19R)-3-(cyclopropylmethyl)-16-fluoro-10,19-dimethyl-11,20-dioxa-3,4,9,23-tetraazapentacyclo[19.3.1,0^2,^6.0^8,^12.0^13,^18]pentacosa-1(24),2(6),4,8(12),9,13,15,17,21(25),22-decaen-22-amine]",< 0.05 µM,< 0.05 µM,< 0.05 µM,< 0.05 µM,> 0.5 µM,0.0001 to 0.05 µM,0.0001 to 0.05 µM,0.0001 to 0.05 µM,0.0001 to 0.05 µM,> 0.5 µM,"A (bin A for very high selectivity, ratio >30-fold)","A (bin A for very high selectivity, ratio >30-fold)","A (bin A for very high selectivity, ratio >30-fold)","A (bin A for very high selectivity, ratio >30-fold)"
"CCn1nc(C(F)(F)F)c2c1-c1cnc(N)c(c1)O[C@H](C)c1cc(F)ccc1-c1nn(C)nc1C2 [Example 80, (19R)-3-ethyl-16-fluoro-10,19-dimethyl-5-(trifluoromethyl)-20-oxa-3,4,9,10,11,23-hexaazapentacyclo[19.3.1.0^2,^6.0^8,^12.0^13,^18]pentacosa-1(24),2(6),4,8,11,13,15,17,21(25),22-decaen-22-amine]",< 0.05 µM,0.05 to 0.5 µM,< 0.05 µM,0.05 to 0.5 µM,> 0.5 µM,0.0001 to 0.05 µM,0.0001 to 0.05 µM,0.05 to 0.5 µM,> 0.5 µM,> 0.5 µM,"A (bin A for very high selectivity, ratio >30-fold)","A (bin A for very high selectivity, ratio >30-fold)","C (bin C for moderate selectivity, ratio ≥1)","B (bin B for high selectivity, ratio >10-fold)"
"C[C@H]1Oc2cc(cnc2N)-c2c(cnn2C2COC2)Cc2nn(C)nc2-c2ccc(F)cc21 [Example 83, (19R)-16-fluoro-10,19-dimethyl-3-(oxetan-3-yl)-20-oxa-3,4,9,10,11,23-hexaazapentacyclo[19.3.1.0^2,^6.0^8,^12.0^13,^18]pentacosa-1(24),2(6),4,8,11,13,15,17,21(25),22-decaen-22-amine]",< 0.05 µM,< 0.05 µM,< 0.05 µM,< 0.05 µM,> 0.5 µM,0.0001 to 0.05 µM,0.0001 to 0.05 µM,0.0001 to 0.05 µM,0.05 to 0.5 µM,0.05 to 0.5 µM,"A (bin A for very high selectivity, ratio >30-fold)","A (bin A for very high selectivity, ratio >30-fold)","C (bin C for moderate selectivity, ratio ≥1)","A (bin A for very high selectivity, ratio >30-fold)"
